Measured values published in PMC3070195 (Bioconjugate chemistry, 2010).

Legend:
Vero cells = assay: Cytotoxicity in Vero cells; format: cell-based, African green monkey; conditions: 3 days, hemacytometer; for IC50: read-out: Cytotoxicity IC50 VERO cells
PBM cells = assay: Cytotoxicity in uninfected PHA-stimulated PBM cells; format: cell-based, human; conditions: 6 days, cell growth, trypan blue exclusion
[1] = as above; format: cell-based, human; conditions: human, uninfected PHA-stimulated PBM cells
[2] = Cytotoxicity in CEM cells; format: cell-based; conditions: human, CEM (CEM-CCRF) T-lymphoblastoid cells
[3] = Cytotoxicity in Vero cells; format: cell-based, African green monkey; conditions: African green monkey, Vero (kidney) cells

Compound: O=c1ccn([C@H]2C=C[C@@H](COP(=O)(O)OC[C@H]3OC(O)[C@H](O)[C@@H](O)[C@@H]3O)O2)c(=O)[nH]1 (stereo partly drawn) [10a, 2′,3′-Didehydro-2′,3′-dideoxyuridine 5′-(α/β-D-glucopyranos-6-yl) phosphate]
- IC50 (Vero cells): > 100 µM

Compound: Cc1cn([C@H]2C=CC(COP(=O)(O)OC[C@H]3O[C@H](O)[C@H](O)[C@@H](O)[C@@H]3O)O2)c(=O)[nH]c1=O (stereo partly drawn) [10b, 2′,3′-Didehydro-2′,3′-dideoxythymidine 5′-(α/β-D-glucopyranos-6-yl) phosphate]
- Cytotoxicity IC50 PBM cells (PBM cells): no cytotoxicity
- Cytotoxicity IC50 VERO cells (Vero cells): no cytotoxicity
- IC50 (Vero cells): > 100 µM

Compound: O=c1[nH]c(=O)n([C@H]2C[C@H](O)[C@@H](COP(=O)(O)OC[C@H]3OC(O)[C@H](O)[C@@H](O)[C@@H]3O)O2)cc1I (stereo partly drawn) [10c, 2′-Deoxy-5-iodouridine 5′-(α/β-D-glucopyranos-6-yl) phosphate]
- IC50 (Vero cells): > 100 µM

Compound: O=c1[nH]c(=O)n([C@H]2C[C@H](OP(=O)(O)OC[C@H]3O[C@H](O)[C@H](O)[C@@H](O)[C@@H]3O)[C@@H](CO)O2)cc1I [10d, 2′-Deoxy-5-iodouridine 3′-(α/β-D-glucopyranos-6-yl) phosphate]
- IC50 (Vero cells): > 100 µM

Compound: O=c1[nH]cnc2c1ncn2[C@H]1CC[C@@H](COP(=O)(O)OC[C@H]2OC(O)[C@H](O)[C@@H](O)[C@@H]2O)O1 (stereo partly drawn) [10e, 2′,3′-Dideoxyinosine 5′-(α/β-D-glucopyranos-6-yl) phosphate]
- IC50 (Vero cells): > 100 µM

Compound: Nc1ncnc2c1ncn2[C@H]1CC[C@@H](COP(=O)(O)OC[C@H]2OC(O)[C@H](O)[C@@H](O)[C@@H]2O)O1 (stereo partly drawn) [10f, 2′,3′-Dideoxyadenosine 5′-(α/β-D-glucopyranos-6-yl) phosphate]
- IC50 (Vero cells): 73.2 µM

Compound: NC(=O)c1ncn([C@@H]2O[C@H](COP(=O)(O)OC[C@H]3OC(O)[C@H](O)[C@@H](O)[C@@H]3O)[C@@H](O)[C@H]2O)n1 (stereo partly drawn) [10g, 1′-(3-Carbamoyl-1,2,4-triazoyl)-β-D-ribofuranose 5′-(α/β-D-glucopyranos-6-yl) phosphate]
- IC50 (Vero cells): > 100 µM

Compound: Nc1ncnc2c1ncn2[C@@H]1O[C@H](COP(=O)(O)OC[C@H]2OC(O)[C@H](O)[C@@H](O)[C@@H]2O)[C@@H](O)[C@@H]1O (stereo partly drawn) [10h, 1′-Adeninyl-β-D-arabinofuranose 5′-(α/β-D-glucopyranos-6-yl) phosphate]
- IC50 (Vero cells): > 100 µM

Compound: Nc1ccn([C@@H]2O[C@H](COP(=O)(O)OC[C@H]3OC(O)[C@H](O)[C@@H](O)[C@@H]3O)[C@@H](O)[C@@H]2O)c(=O)n1 (stereo partly drawn) [10i, 1′-Cytosinyl-β-D-arabinofuranose 5′-(α/β-D-glucopyranos-6-yl) phosphate]
- IC50 (Vero cells): < 1 µM

Compound: Cc1cn([C@H]2C[C@H](N=[N+]=[N-])[C@@H](CO)O2)c(=O)[nH]c1=O [AZT, zidovudine]
- IC50 at 6 days [1]: > 100 µM

Compound: Nc1ncnc2c1ncn2[C@@H]1O[C@H](CO)[C@@H](O)[C@@H]1O [Ara-A, ara-adenosine]
- IC50 at 6 days [1]: 26 µM
- IC50 at 6 days [2]: 26.2 µM
- IC50 at 3 days [3]: > 100 µM

Compound: Nc1ccn([C@@H]2O[C@H](CO)[C@@H](O)[C@@H]2O)c(=O)n1 [Ara-C, Ara-cytidine]
- IC50 at 6 days [1]: 57 µM
- IC50 at 6 days [2]: < 0.1 µM

Compound: O=c1[nH]c(=O)n([C@H]2C[C@H](O)[C@@H](CO)O2)cc1I [IdUrd]
- IC50 (Vero cells): > 100 µM

Compound: NC(=O)c1ncn([C@@H]2O[C@H](CO)[C@@H](O)[C@H]2O)n1 [Virazole]
- IC50 at 6 days [1]: > 100 µM
- IC50 at 6 days [2]: 53 µM
- IC50 at 3 days [3]: > 100 µM

Compound: Cc1cn([C@H]2C=C[C@@H](CO)O2)c(=O)[nH]c1=O [d4T]
- IC50 (Vero cells): > 100 µM

Compound: O=c1ccn([C@H]2C=C[C@@H](CO)O2)c(=O)[nH]1 [d4U]
- IC50 (Vero cells): > 100 µM

Compound: Nc1ncnc2c1ncn2[C@H]1CC[C@@H](CO)O1 [ddA]
- IC50 (Vero cells): > 100 µM

Compound: O=c1[nH]cnc2c1ncn2[C@H]1CC[C@@H](CO)O1 [ddI]
- IC50 (Vero cells): > 100 µM
